DBAASP
≈ marks a conversion by molar mass, not a printed value. Where “and” joins values, the source holds several entries; their conditions need not be identical. Identical values can stand only once. Blank lines part the entries; values can stand above or below the molecule they belong to.

What was measured:
Test in all cases: ≥ marks a high value that may be exact or a test limit, other limits are often not marked, values filed in µg/mL are converted to µM
[1] = system: Escherichia coli ATCC 25922
Escherichia coli CFT073 = system: Escherichia coli CFT073
Escherichia coli UTI89 = system: Escherichia coli UTI89
Escherichia coli = system: Escherichia coli
[2] = system: Pseudomonas aeruginosa ATCC 27853
[3] = system: Pseudomonas aeruginosa PAO1
[4] = system: Bacillus subtilis CICC 24434
Escherichia coli E44813 = system: Escherichia coli E44813
[5] = system: Listeria monocytogenes CICC 21533
[6] = system: Pasteurella multocida C48-3
[7] = system: Salmonella enterica subsp. enterica serovar Choleraesuis C78-1
[8] = system: Salmonella typhimurium SL1344
[9] = system: Staphylococcus aureus ATCC 25923
[10] = system: Staphylococcus epidermidis LY8
[11] = system: Escherichia coli DSM 1116
[12] = system: Franconibacter helveticus DSM 18390
[13] = system: Staphylococcus xylosus DSM 20267
Acinetobacter baumannii = system: Acinetobacter baumannii
Enterobacter cloacae = system: Enterobacter cloacae
[14] = system: Escherichia coli ATCC 35218
Klebsiella aerogenes = system: Klebsiella aerogenes
Klebsiella oxytoca = system: Klebsiella oxytoca
Klebsiella pneumoniae = system: Klebsiella pneumoniae
Proteus mirabilis = system: Proteus mirabilis
Pseudomonas aeruginosa = system: Pseudomonas aeruginosa
Salmonella enterica = system: Salmonella enterica
Serratia marcescens = system: Serratia marcescens
Staphylococcus aureus = system: Staphylococcus aureus
[15] = system: Staphylococcus epidermidis
[16] = system: Staphylococcus haemolyticus
[17] = system: Staphylococcus saprophyticus
[18] = system: Pseudomonas aeruginosa 885149
[19] = system: Pseudomonas aeruginosa 891
[20] = system: Staphylococcus aureus MIU-68A
Escherichia coli BL21 = system: Escherichia coli BL21
Escherichia coli MG1655 = system: Escherichia coli MG1655
[21] = system: Staphylococcus aureus ATCC 29213
[22] = system: Staphylococcus aureus FDA486
[23] = system: Staphylococcus aureus FusA88700
[24] = system: Aspergillus oryzae NBRC 100959
[25] = system: Candida viswanathii NBRC 10321
[26] = system: Escherichia coli NBRC 3972
[27] = system: Micrococcus luteus NBRC 3333
[28] = system: Staphylococcus epidermidis NBRC 12993

- MIC [1]: 56.8 µM (≈ 125 µg/mL)
- MIC (Escherichia coli CFT073): ≥ 56.8 µM
- MIC (Escherichia coli UTI89): ≥ 56.8 µM
- MIC (Escherichia coli): 80.4 µM (≈ 177 µg/mL)
- MIC [2]: 56.8 µM (≈ 125 µg/mL)
- MIC [3]: 56.8 µM (≈ 125 µg/mL)
Compound: CC[C@H](C)[C@H](N)C(=O)N[C@@H](C)C(=O)N[C@@H](C)C(=O)N[C@@H](CCC(=O)O)C(=O)N[C@@H](CCCN=C(N)N)C(=O)N[C@@H](CCCN=C(N)N)C(=O)N[C@@H](Cc1ccc(O)cc1)C(=O)N[C@@H](C)C(=O)N[C@H](C(=O)N[C@H](C(=O)N[C@@H](Cc1ccc(O)cc1)C(=O)N[C@@H](CCC(N)=O)C(=O)N[C@@H](C)C(=O)N[C@@H](CCCN=C(N)N)C(=O)N[C@@H](CC(C)C)C(=O)N[C@@H](Cc1c[nH]c2ccccc12)C(=O)N[C@@H](C)C(=O)N[C@@H](Cc1ccccc1)C(=O)O)[C@@H](C)CC)[C@@H](C)O [IAAERRYATIYQARLWAF]

- MIC [4]: 0.519 µM (≈ 1.56 µg/mL)
- MIC (Escherichia coli E44813): 4.16 µM (≈ 12.5 µg/mL)
- MIC [5]: ≥ 41.6 µM
- MIC [6]: 0.519 µM (≈ 1.56 µg/mL)
- MIC [8]: 0.519 µM (≈ 1.56 µg/mL)
- MIC [9]: 0.0083 µM (≈ 0.0249 µg/mL)
- MIC [10]: 8.32 µM (≈ 25 µg/mL)
Compound: CC[C@H](C)[C@H](NC(=O)[C@@H](NC(=O)[C@@H](N)CCCN=C(N)N)[C@@H](C)CC)C(=O)N[C@@H](CC(=O)O)C(=O)N[C@@H](CCCN=C(N)N)C(=O)N[C@@H](CC(C)C)C(=O)N[C@@H](Cc1c[nH]c2ccccc12)C(=O)N[C@@H](CCCN=C(N)N)C(=O)N[C@H](C(=O)N[C@@H](CCCN=C(N)N)C(=O)N[C@@H](CCCN=C(N)N)C(=O)N1CCC[C@H]1C(=O)N[C@@H](CCC(N)=O)C(=O)N[C@@H](CCCCN)C(=O)N1CCC[C@H]1C(=O)N[C@@H](CCCCN)C(=O)N[C@@H](Cc1ccccc1)C(=O)N[C@H](C(=O)N[C@H](C(=O)N[C@H](C(=O)N[C@@H](Cc1c[nH]c2ccccc12)C(=O)N[C@H](C(=O)N[C@@H](CCCN=C(N)N)C(=O)O)C(C)C)C(C)C)[C@@H](C)O)C(C)C)C(C)C [RIIDRLWRVRRPQKPKFVTVWVR]
- MIC [7]: 0.26 µM (≈ 0.78 µg/mL)

- MIC [11]: 6.53 µM and 3.27 µM
- MIC [12]: 3.27 µM and 1.63 µM
- MIC [13]: 1.63 µM (≈ 2 µg/mL)
Compound: CC(C)C[C@H](NC(=O)[C@H](CCCCN)NC(=O)[C@H](CC(C)C)NC(=O)[C@H](CCCCN)NC(=O)[C@H](CC(C)C)NC(=O)[C@H](CCCCN)NC(=O)[C@H](CC(C)C)NC(=O)[C@H](CCCCN)NC(=O)[C@H](CC(C)C)NC(=O)[C@@H](N)CCCCN)C(N)=O [KLKLKLKLKL]

- MIC (Acinetobacter baumannii): 10 µM (≈ 20 µg/mL)
- MIC (Enterobacter cloacae): 10 µM (≈ 20 µg/mL)
- MIC [14]: 10 µM (≈ 20 µg/mL)
- MIC (Klebsiella aerogenes): 10 µM (≈ 20 µg/mL)
- MIC (Klebsiella oxytoca): 10 µM (≈ 20 µg/mL)
- MIC (Klebsiella pneumoniae): > 10 µM
- MIC (Proteus mirabilis): 10 µM (≈ 20 µg/mL)
- MIC (Pseudomonas aeruginosa): > 10 µM
- MIC (Salmonella enterica): 10 µM (≈ 20 µg/mL)
- MIC (Serratia marcescens): 10 µM (≈ 20 µg/mL)
- MIC (Staphylococcus aureus): > 10 µM
- MIC [15]: 10 µM (≈ 20 µg/mL)
- MIC [17]: 10 µM (≈ 20 µg/mL)
Compound: CC[C@H](C)[C@H](NC(=O)[C@H](Cc1ccc(O)cc1)NC(=O)[C@H](Cc1ccc(O)cc1)NC(=O)[C@H](CO)NC(=O)CNC(=O)CNC(=O)[C@H](CC(N)=O)NC(=O)[C@H](CCCN=C(N)N)NC(=O)[C@H](CC(C)C)NC(=O)[C@@H](N)Cc1ccccc1)C(=O)N[C@H](C(=O)N1CCC[C@H]1C(=O)N[C@@H](C)C(=O)N[C@@H](Cc1ccccc1)C(=O)N[C@@H](CCCN=C(N)N)C(=O)NCC(=O)N[C@@H](CCCCN)C(=O)NCC(=O)O)C(C)C [FLRNGGSYYIVPAFRGKG]
- MIC [16]: 10 µM (≈ 20 µg/mL)

- MIC [1]: 17 µM (≈ 16 µg/mL)
- MIC (Escherichia coli): 136 µM (≈ 128 µg/mL)
- MIC (Klebsiella pneumoniae): > 136 µM
- MIC [18]: ≥ 34 µM
- MIC [19]: 17 µM (≈ 16 µg/mL)
- MIC [2]: 17 µM (≈ 16 µg/mL)
- MIC [9]: 136 µM (≈ 128 µg/mL)
- MIC [20]: ≥ 136 µM
Compound: CC[C@H](C)[C@H](NC(=O)[C@@H](N)CCCCN)C(=O)N[C@@H](CCCN=C(N)N)C(=O)N[C@H](C(=O)N[C@@H](CCCN=C(N)N)C(=O)N[C@@H](CC(C)C)C(=O)N[C@@H](CO)C(=O)N[C@@H](C)C(=O)O)C(C)C [KIRVRLSA]

- MIC (Escherichia coli BL21): 5 µM (≈ 18.4 µg/mL)
- MIC (Escherichia coli MG1655): 11 µM (≈ 40.4 µg/mL)
- MIC [21]: 3 µM (≈ 11 µg/mL)
- MIC [22]: 3 µM (≈ 11 µg/mL)
- MIC [23]: 3 µM (≈ 11 µg/mL)
- MIC (Staphylococcus aureus): 3 µM (≈ 11 µg/mL)
- MIC [15]: 3 µM (≈ 11 µg/mL)
Compound: CC[C@H](C)[C@H](NC(=O)[C@H](CCCCN)NC(=O)[C@H](CCCN=C(N)N)NC(=O)[C@H](CCCCN)NC(=O)[C@H](CCCCN)NC(=O)[C@H](CCCCN)NC(=O)[C@H](Cc1c[nH]c2ccccc12)NC(=O)[C@H](CCCCN)NC(=O)[C@@H](NC(=O)[C@H](CC(C)C)NC(=O)[C@H](Cc1c[nH]c2ccccc12)NC(=O)[C@H](CCCN=C(N)N)NC(=O)[C@H](CC(=O)O)NC(=O)[C@H](CCSC)NC(C)=O)C(C)C)C(=O)N[C@@H](CCCN=C(N)N)C(=O)N[C@@H](CCCN=C(N)N)C(=O)N[C@@H](CCCN=C(N)N)C(=O)N[C@@H](CCCN=C(N)N)C(=O)N[C@@H](CCCN=C(N)N)C(=O)N[C@@H](CCCN=C(N)N)C(=O)N[C@@H](CCCN=C(N)N)C(=O)N[C@@H](CCCN=C(N)N)C(=O)N[C@@H](CCCN=C(N)N)C(=O)N[C@@H](CCCN=C(N)N)C(=O)N[C@@H](CCCN=C(N)N)C(N)=O [MDRWLVKWKKKRKIRRRRRRRRRRR]

- MIC [24]: 14.9 µM (≈ 25 µg/mL)
- MIC [25]: 29.8 µM (≈ 50 µg/mL)
- MIC [26]: ≥ 239 µM
- MIC [27]: 29.8 µM (≈ 50 µg/mL)
- MIC [28]: 14.9 µM (≈ 25 µg/mL)
Compound: CSCC[C@H](NC(=O)[C@H](CCCCN)NC(=O)[C@@H](NC(=O)[C@H](CCCN=C(N)N)NC(=O)[C@H](CCCCN)NC(=O)[C@H](Cc1c[nH]c2ccccc12)NC(=O)[C@H](Cc1ccccc1)NC(=O)[C@H](CCCN=C(N)N)NC(=O)[C@H](CCCCN)NC(=O)[C@H](CC(C)C)NC(=O)[C@H](CCCCN)NC(=O)[C@@H](N)CCCN=C(N)N)C(C)C)C(=O)O [RKLKRFWKRVKM]
